This note sets out measurements from the METLIN SMRT retention time set (Domingo-Almenara et al. 2019).

A short description of this data set: gradient 5% acetonitrile 3 min, to 50% in 2 min, to 85% in 15 min, held 3 min, 100 µL/min. To be noted: column: Zorbax Extend-C18 2.1 x 50 mm; eluents: water / acetonitrile, 0.1% formic acid. The essentials: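 Each retention time is based on an adduct peak selected computationally and verified by manual inspection. Measurements used HPLC–quadrupole time-of-flight mass spectrometry in positive and negative ionization mode on mixtures of ~100 pure standards. Chromatography ran on a Zorbax Extend-C18 column (2.1 × 50 mm, 1.8 μm) at 100 μL/min with water and acetonitrile, each containing 0.1% formic acid, and dead and dwell volumes of 40 μL and 900 μL.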
In turn, `COCc1cc(=O)n(Cc2ncc(C)c(OC)c2C)c(N2CCCC2)n1` registered an RP-LC retention time of 608 s. Then `Cc1ccc(S(=O)(=O)N2CCC(C(=O)NCC(=O)N3CCCc4ccccc43)CC2)cc1`, with 843 s; and `Cc1nn2c(CNC(=O)c3ccco3)c(-c3ccccc3)nc2s1`, with 728 s; and `Cc1nc(Nc2ncc3c(n2)CC(c2ccc(F)cc2)CC3=O)nc2ccccc12` (centres undefined), with 756 s. Then `CCOC(=O)N1CCc2nc(NC(=O)c3ccc([N+](=O)[O-])s3)sc2C1`, with 792 s; and `COCCN(Cc1ccsc1)C(=O)C1(c2cccs2)CCCC1`, with 1070 s.

Take `Cc1ccc(CCNC(=O)C2CCN(S(=O)(=O)c3ccc4c(c3)CCCC(=O)N4)CC2)cc1`: the RP-LC retention time came out at 781 s. With `COc1ccc(CN2CCC(NC(=O)C3(c4ccccc4)CC3)C2)cn1` (centres undefined) the figure was 639 s; with `Cc1cc(S(=O)(=O)NCC2CCCO2)cc([N+](=O)[O-])c1C` (centres undefined), 778 s.

`COc1ccc(-c2nc3cnccn3c2Nc2ccc(C(=O)NC3CCCCC3)cc2)cc1`: the RP-LC retention time was found to be 798 s.

`Cc1cccc(CN2CCCn3nc(C(=O)NCCc4cnc[nH]4)cc3C2=O)c1` came in with an RP-LC retention time of 610 s.

Consider `CC(=O)N1CCCSc2ccc(S(=O)(=O)N(C)c3ccc(C)c(C)c3)cc21`, for which the RP-LC retention time was 1030 s. `COc1cccc(OCC2c3ccsc3CCN2C(=O)CN(C(=O)NC(C)C)C2CC2)c1` (centres undefined) showed an RP-LC retention time of 918 s. With `O=C(NC1CC(=O)N(Cc2ccccc2)C1)c1cnccn1` (centres undefined) the figure was 632 s; with `CC(C)NC(=O)c1ccc(OCC2CCN(C(=O)c3ccc(F)cc3)CC2)cc1`, 826 s; with `COc1cccc(CNC(=O)C2CCN(CC(=O)Nc3ccc(C)cc3)CC2)c1`, 582 s. For `Cc1cc(C)cc(S(=O)(=O)NCc2c(-c3ccccc3)nc3sc(C)nn23)c1`, the RP-LC retention time is 921 s. With `COc1ccc(-c2nc3cnccn3c2Nc2ccc(C)cc2Br)cc1` the figure was 1040 s; with `CN1CCCn2cc(S(=O)(=O)NCc3ccccc3Cl)cc2C1=O`, 704 s. With `CCn1ccc2c(cc(C(=O)Nc3ccccc3C(F)(F)F)n2C)c1=O` the figure was 742 s. `Cc1ccc(CNC(=O)C2(C)CCN(C(=O)Nc3cccc(Cl)c3C)CC2)cc1` showed an RP-LC retention time of 717 s. Compound `COc1ccc(-c2c(C(=O)Nc3ccc4c(c3)OCCO4)nc3ccccn23)cc1` came in with an RP-LC retention time of 919 s. The compound `CSc1ccc(C(=O)NC2CCCCC2NC(=O)CNC(=O)c2cc(C(F)(F)F)ccc2NC(=O)NC(C)C)cc1` (centres undefined) yielded an RP-LC retention time of 924 s. With `CCOCC(=O)N1CC(c2nc(CCOC)no2)C1` the figure was 600 s; with `CC(=O)NCc1csc(C2CCCN(C(=O)c3cccn3C)C2)n1` (centres undefined), 612 s; with `COc1ccc(CNC(=O)Cn2c(=O)cc(-c3nc(C)no3)c3ccccc32)cc1OC`, 746 s.

`CCCNC(=O)N(C1CCOCC1)C1CCN(C(=O)c2nn(C)c3ccccc23)CC1` registered an RP-LC retention time of 1150 s. For `CCCCN(CC)C(=O)C1CCCN(c2nc3cccnc3s2)C1` (centres undefined), the RP-LC retention time stood at 914 s. With `O=C(Nc1cccc(Br)c1)C1CC(=O)N(CCc2c[nH]c3ccc(F)cc23)C1` (centres undefined) the figure was 890 s; with `COc1cccc(-n2c(=O)c3sccc3n(Cc3nc(-c4ccccc4Cl)no3)c2=O)c1`, 969 s; with `O=C(c1ccccc1)N1CCCC1c1nc(-c2ccccc2Cl)no1` (centres undefined), 978 s.

On to `C=CCNC(=O)C1CCN(C(=O)Nc2ccc(NC(=O)Nc3ccccc3)cc2)CC1`, for which the RP-LC retention time stood at 679 s.

`CCS(=O)(=O)Nc1ccc(C2(C(=O)NCc3cccc(Cl)c3)CCC2)cc1` gave an RP-LC retention time of 876 s.

With `COc1ccc2c(c1)C1(CCN(C(=O)c3cccc(Cl)c3)C1)C(=O)N2` (centres undefined), the RP-LC retention time came out at 753 s.

As to `CCCn1cnc2cc(CNC(=O)C(C)c3ccccc3)ccc21` (centres undefined), the RP-LC retention time came to 631 s. Then `Cc1c(C(=O)NC2CCCCCC2)sc2ncn(CC(=O)N3CC(C)CC(C)C3)c(=O)c12` (centres undefined), with 1070 s; and `Cc1c(Cl)cccc1NC(=O)N1CCc2nc(-c3ccc(F)cc3)ncc2C1`, with 996 s; and `COCC1(O)CCOC2(CCN(Cc3c(F)cccc3Cl)CC2)C1` (centres undefined), with 543 s. Then `Cc1ccc(C)c(NC(=O)COc2nc(C)nc3ccccc23)c1`, with 754 s; and `Cn1cc(CN2CCCC(COc3ccccc3C(=O)N3CCOCC3)C2)c2ccccc21` (centres undefined), with 664 s; and `O=C(Nc1cccc(-c2ccc(N3CCOCC3)nn2)c1)Nc1ccc(F)cc1F`, with 723 s. With `COc1ccc2[nH]c3c(c2c1)CCN1C(=O)N(CCc2ccc(OC)c(OC)c2)C(=O)C31C` (centres undefined) the figure was 888 s.

Consider `COc1ccc(-c2nc3ncccn3c2NCc2ccccc2)cc1`, for which the RP-LC retention time came to 717 s. Then `N#Cc1cccc(-c2cn3c(n2)N(C(=O)c2ccncc2)CCC3)c1`, with 611 s; and `COCCNC(=O)C1c2ccccc2C(=O)N(C)C1c1cccs1` (centres undefined), with 679 s. Then `CC(C)(C)c1ccc(-c2nc(N3CCOCC3)c3ccccc3n2)cc1`, with 821 s; and `COc1ccc(Cl)cc1C(=O)N1CCN(c2cc(-n3nc(C)cc3C)nc(C)n2)CC1`, with 988 s; and `Cc1cccc(-n2c(=O)c3c(cc(C)n3C)n(CC(=O)Nc3ccc(C)cc3C)c2=O)c1`, with 912 s.

For `Cc1ccc(-c2cc3c(N4CCCC(C(=O)NCCC5=CCCCC5)C4)nccn3n2)c(C)c1` (centres undefined), the RP-LC retention time was 1150 s. With `Cc1cc2c(cc1NC(=O)c1cccs1)n(C)c(=O)n2C` the figure was 668 s.

`COC[C@@H]1CN(S(=O)(=O)c2ccccc2)C[C@H]1c1nc(C)no1` gave an RP-LC retention time of 803 s. In the case of `CCOC(=O)c1ccc(NC(=O)C2CCCN(S(=O)(=O)c3ccc(OC)c(Cl)c3)C2)cc1` (centres undefined), the RP-LC retention time was determined as 1060 s. Then `CCN1C=C(C(=O)OCc2cc(F)cc(F)c2)C(C)=NS1(=O)=O`, with 926 s.

`Cc1ccc(-n2ccc(=O)c(-c3nc(-c4ccccc4Br)no3)n2)cc1C` yielded an RP-LC retention time of 1020 s. Then `CC(C)Oc1ccc(-c2noc(-c3nn(-c4ccc(Cl)cc4)ccc3=O)n2)cc1`, with 1060 s.

As for `Cc1cc(-n2nnc(C(=O)O)c2C)ccc1F`, the RP-LC retention time stood at 705 s.

As to `COc1cccc(CC2C(=O)Nc3ccc(Cl)cc32)c1OC` (centres undefined), the RP-LC retention time was determined as 900 s. With `O=C(c1ccco1)N1CCC(Cc2nnc(-c3ccccc3)o2)CC1` the figure was 749 s; with `CCC1(O)CCOC2(CCN(Cc3ccncc3F)CC2)C1` (centres undefined), 554 s. As for `CCNc1nc(C)cc(N2CCN(C(=O)Nc3cccc(Cl)c3)CC2)n1`, the RP-LC retention time is 695 s.

On to `CC(C)CNC(=O)c1cc2c(s1)N(CC1CC1)CCCC2`, for which the RP-LC retention time amounted to 1040 s.

`Cc1cc(=O)n(CC(=O)Nc2cccc(Br)c2)c(N2CCOCC2)n1` returned an RP-LC retention time of 705 s. Consider `O=C(NC1CCN(c2cc(-c3ccccc3)[nH]n2)C1)c1cccc(F)c1` (centres undefined), for which the RP-LC retention time is 717 s. Then `COc1ccc(Cl)cc1NC(=O)N1CCN(c2cc(C)nc(N3CCOCC3)n2)CC1`, with 659 s.

Compound `COc1ccc(CC(=O)N2CCCC2c2c(C)noc2C)cc1OC` (centres undefined) registered an RP-LC retention time of 696 s. Compound `Cc1ccc(-c2nnc(N3CCC(C(=O)NCc4cccs4)CC3)o2)cc1` came in with an RP-LC retention time of 933 s.

In turn, `CC1(C)CC(=O)c2cn(-c3ccc(Cl)cc3)c(=O)c(C(=O)N3CCN(c4ccccn4)CC3)c2C1` returned an RP-LC retention time of 650 s. With `COc1ccc(NC(=O)CCC2CCN(c3cc(NC4CC4)ncn3)CC2)c(C)c1` the figure was 575 s. In turn, `CC(C)c1ccc(-c2ccc(=O)n(CCc3nc(-c4ccc5c(c4)OCO5)no3)n2)cc1` showed an RP-LC retention time of 1140 s. With `Cc1cccc(Nc2nc(C(=O)NCc3ccc(F)cc3F)cs2)n1` the figure was 843 s. With `CCCCC(=O)Nc1cc(C(=O)O)ccc1N(C)CC1COCCO1` (centres undefined) the figure was 756 s; with `CC(NC(=O)Cc1nnc2cc(-c3nc(C4CC4)no3)ccn12)c1ccc(F)cc1` (centres undefined), 780 s. With `O=c1c2cc3c(cc2nc(SCc2nc(-c4ccc(F)cc4)no2)n1-c1ccc(F)cc1)OCO3` the figure was 1170 s; with `Cc1cccc(-c2noc(CN3N=NC4C(=O)N(c5ccccc5)C(=O)C43)n2)c1` (centres undefined), 989 s. The compound `O=C(c1cccs1)N1CCC(Cn2c(C(F)(F)F)nc3ccccc32)CC1` had an RP-LC retention time of 819 s.

In turn, `CCC(CC)C(=O)Nc1nc(-c2ccc3c(c2)N(C)C(=O)C(C)O3)cs1` (centres undefined) showed an RP-LC retention time of 992 s.

Consider `Cc1ccc(NC(=O)NC2CCN(c3ccccc3)C2=O)cc1` (centres undefined), for which the RP-LC retention time stood at 821 s. Then `COc1nn(C)cc1C(=O)Nc1ccc(-c2cn3ccsc3n2)cc1`, with 575 s; and `CCC(=O)Nc1ccc(CCc2nc3ccc(C(=O)NCc4ccc(SC)cc4)cc3[nH]2)cc1`, with 683 s.
